In patent publication US6346642B1, “Mixed crystals comprising aspartame and aspartame derivative and process for producing the same” (Ajinomoto Co., Inc., priority 1997, dated 2002):
Peptide text beside a SMILES is read from it.

Key:
[1] = Properties in quality of sweetness compared to sucrose (inventors' findings)
Source text: It is strong in astringency (astringent taste) and badly-balanced for quality of sweetness as compared to sucrose. On the other hand, with respect to APM, its properties for quality of sweetness is weak in early taste, and strong in later taste, although they are not so bad as those in N-(3,3-dimethylbuty)-APM. Therefore, any one of both compounds has the properties for quality of sweetness which is weak in early taste, and strong in later taste, and thus is out of quality of sweetness, taking into account the fact that sucrose is natural in sweetness.

[2] = relative to sucrose, by weight ratio; cited from earlier work

Compound | early taste (tastes sweet as early as sucrose) ([1]; quality of sweetness) | later taste (tastes sweet later than sucrose) ([1]; quality of sweetness) | sweetening potency [2] | quality of sweetness (balance) [1] | astringency (astringent taste) ([1]; quality of sweetness)
COC(=O)[C@H](Cc1ccccc1)NC(=O)[C@@H](N)CC(=O)O [APM, aspartame] (H-Asp-Phe-OMe) | weak | strong | – | – | –
COC(=O)[C@H](Cc1ccccc1)NC(=O)[C@H](CC(=O)O)NCCC(C)(C)C [N-(3,3-dimethylbutyl)-APM, N-[N-(3,3-dimethylbutyl)-L-α-aspartyl]-L-phenylalanine methyl ester] | extremely weak | extremely strong | 10,000 times by weight ratio that of | badly-balanced | strong
